US8133884B2, “Compounds for the treatment of hepatitis C” (priority 2008, dated 2012)

Assays:
HCV NS5B = target: T1, HCV NS5B (Hepatitis C virus genotype 1b, UniProt Q9WMX2); test: Modified HCV NS5B RdRp enzyme assay (preincubation protocol); type: biochemical
T1 construct: The protein was expressed with an 18 amino acid C-terminal truncation to enhance the solubility; made in house; host or cells: E. coli BL21(DE3)
In short: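 C-terminally truncated (Δ18) genotype 1b NS5B from E. coli, 14 nM, added to compound first, then polyA template (0.2 nM), 3H-UTP (0.29 μM) and oligo-dT12 primer precaptured on streptavidin SPA beads (20 nM). Run 4 h at 30° C, pH 7.5, 2% DMSO; IC50 fitted from seven concentrations.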

HCV replicon = HCV replicon assay (FRET or luciferase reporter); type: cell-based; conditions: Hepatitis C virus, one of the methods described
In short: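 HCV replicon Huh-7 cells were exposed to titrated compound at 37 °C, with Alamar blue as a cytotoxicity read. Replication was measured by NS3 cleavage of an EDANS/DABCYL FRET peptide (20 μM, 340/490 nm kinetic read) or by Renilla luciferase, with background from high-dose protease inhibitor wells. EC50 was taken as 50% signal reduction; a 384-well format used 3.0×10^3 cells/well, 0.5% DMSO and 3 days.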

T1 sequence (Q9WMX2 2420-2992): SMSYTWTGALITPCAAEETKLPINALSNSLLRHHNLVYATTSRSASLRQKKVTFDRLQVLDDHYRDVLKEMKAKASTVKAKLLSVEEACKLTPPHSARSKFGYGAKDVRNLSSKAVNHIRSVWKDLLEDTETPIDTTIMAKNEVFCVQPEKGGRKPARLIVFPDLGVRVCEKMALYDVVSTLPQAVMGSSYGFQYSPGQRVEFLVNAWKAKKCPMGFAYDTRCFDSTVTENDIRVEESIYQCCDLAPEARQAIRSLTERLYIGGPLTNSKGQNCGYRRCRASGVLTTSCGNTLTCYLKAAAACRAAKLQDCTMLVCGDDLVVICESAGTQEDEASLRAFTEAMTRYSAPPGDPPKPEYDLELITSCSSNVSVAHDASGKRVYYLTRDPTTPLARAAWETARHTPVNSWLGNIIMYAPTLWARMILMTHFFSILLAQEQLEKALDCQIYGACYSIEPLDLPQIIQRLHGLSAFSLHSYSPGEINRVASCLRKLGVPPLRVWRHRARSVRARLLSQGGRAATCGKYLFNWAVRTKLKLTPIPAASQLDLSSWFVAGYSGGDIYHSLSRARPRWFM

SMILES | IC50 (HCV NS5B; class symbol) | IC50 (HCV NS5B; exact value) | EC50 (HCV replicon; class symbol) | EC50 (HCV replicon; exact value)
COc1ccc2c(c1)C=C(c1c(C(=O)N3C[C@@H]4C[C@H]3CO4)cnn1C1CCC1)Cn1c-2c(C2CCCCC2)c2ccc(C(=O)NS(=O)(=O)C(C)C)cc21 | 1.7 to 500 nM | 5.4 nM | 1.7 to 500 nM | 30 nM
COc1ccc2c(c1)C=C(c1c(C(=O)N3C4COCC3COC4)cnn1C1CCN(C)CC1)Cn1c-2c(C2CCCCC2)c2ccc(C(=O)NS(=O)(=O)C(C)C)cc21 | 1.7 to 500 nM | 7.5 nM | 1.7 to 500 nM | 130 nM
COc1ccc2c(c1)C=C(c1c(C(=O)N3C[C@@H](C)N(C)[C@@H](C)C3)c(C)nn1C1CCC1)Cn1c-2c(C2CCCCC2)c2ccc(C(=O)NS(=O)(=O)C(C)C)cc21 | 1.7 to 500 nM | – | 1.7 to 500 nM | –
COc1ccc2c(c1)C=C(c1c(C(=O)N3CCN4CCC[C@H]4C3)cnn1C1CCC1)Cn1c-2c(C2CCCCC2)c2ccc(C(=O)NS(=O)(=O)C(C)C)cc21 | 1.7 to 500 nM | – | 1.7 to 500 nM | –
CCN1C[C@@H]2C[C@H]1CN2C(=O)c1c(C)nn(C2CCC2)c1C1=Cc2cc(OC)ccc2-c2c(C3CCCCC3)c3ccc(C(=O)NS(=O)(=O)C(C)C)cc3n2C1 | 1.7 to 500 nM | – | 1.7 to 500 nM | –
COc1ccc2c(c1)C=C(c1c(C(=O)N3CCOCC3)cnn1C1CCOCC1)Cn1c-2c(C2CCCCC2)c2ccc(C(=O)NS(=O)(=O)C(C)C)cc21 | 1.7 to 500 nM | – | 1.7 to 500 nM | –
COc1ccc2c(c1)C=C(c1c(C(=O)N3CC4CCC(C3)N4C)cnn1C1CCOCC1)Cn1c-2c(C2CCCCC2)c2ccc(C(=O)NS(=O)(=O)CC(C)C)cc21 | 1.7 to 500 nM | – | 1.7 to 500 nM | –
COc1ccc2c(c1)C=C(c1c(C(=O)N3C4CCC3CN(C)C4)c(C)nn1C1CCC1)Cn1c-2c(C2CCCCC2)c2ccc(C(=O)NS(=O)(=O)C(C)C)cc21 | 1.7 to 500 nM | – | 1.7 to 500 nM | –
COc1ccc2c(c1)C=C(c1c(C(=O)N3CCOCC3)cnn1C1CCC1)Cn1c-2c(C2CCCCC2)c2ccc(C(=O)NS(=O)(=O)C(C)C)cc21 | 1.7 to 500 nM | – | 1.7 to 500 nM | –
COc1ccc2c(c1)C=C(c1c(C(=O)N3C[C@@H](C)O[C@@H](C)C3)cnn1C1CCOCC1)Cn1c-2c(C2CCCCC2)c2ccc(C(=O)NS(=O)(=O)C(C)C)cc21 | 1.7 to 500 nM | 2.6 nM | 1.7 to 500 nM | 8.9 nM
COc1ccc2c(c1)C=C(c1c(C(=O)N3C4CCC3COC4)c(C)nn1C1CCC1)Cn1c-2c(C2CCCCC2)c2ccc(C(=O)NS(=O)(=O)C(C)C)cc21 | 1.7 to 500 nM | – | 1.7 to 500 nM | –
COc1ccc2c(c1)C=C(c1c(C(=O)N3C[C@@H](C)O[C@@H](C)C3)cnn1-c1ccncc1C)Cn1c-2c(C2CCCCC2)c2ccc(C(=O)NS(=O)(=O)C(C)C)cc21 | 1.7 to 500 nM | – | 1.7 to 500 nM | –
COc1ccc2c(c1)C=C(c1c(C(=O)N3C[C@@H]4C[C@H]3CN4)cnn1C1CCC1)Cn1c-2c(C2CCCCC2)c2ccc(C(=O)NS(=O)(=O)C(C)C)cc21 | 1.7 to 500 nM | – | 1.7 to 500 nM | –
COc1ccc2c(c1)C=C(c1c(C(=O)N3CCOCC3)ncn1C1CC1)Cn1c-2c(C2CCCCC2)c2ccc(C(=O)NS(=O)(=O)C(C)C)cc21 | 1.7 to 500 nM | – | 1.7 to 500 nM | –
COc1ccc2c(c1)C=C(c1c(C(=O)N3C4CCC3CN(C)C4)cnn1C1CCN(C)CC1)Cn1c-2c(C2CCCCC2)c2ccc(C(=O)NS(=O)(=O)C(C)C)cc21 | 1.7 to 500 nM | – | 1.7 to 500 nM | –
CCN1C[C@@H]2C[C@H]1CN2C(=O)c1cnn(C2CCOCC2)c1C1=Cc2cc(OC)ccc2-c2c(C3CCCCC3)c3ccc(C(=O)NS(=O)(=O)C(C)C)cc3n2C1 | 1.7 to 500 nM | – | 1.7 to 500 nM | –
CCOC(=O)c1cnn(C2CCN(C)CC2)c1C1=Cc2cc(OC)ccc2-c2c(C3CCCCC3)c3ccc(C(=O)O)cc3n2C1 | 1.7 to 500 nM | – | 1.7 to 500 nM | –
COc1ccc2c(c1)C=C(c1c(C(=O)N3C[C@@H](C)N(C)[C@@H](C)C3)cnn1C1CCOCC1)Cn1c-2c(C2CCCCC2)c2ccc(C(=O)NS(=O)(=O)CC(C)C)cc21 | 1.7 to 500 nM | – | 1.7 to 500 nM | –
COc1ccc2c(c1)C=C(c1c(C(=O)N3C4CCC3CN(C)C4)cnn1C1CCC1)Cn1c-2c(C2CCCCC2)c2ccc(C(=O)NS(=O)(=O)CC(C)C)cc21 | 1.7 to 500 nM | 3.3 nM | 1.7 to 500 nM | 8.1 nM
COc1ccc2c(c1)C=C(c1c(C(=O)N3CC4CCC(C3)N4C)cnn1C1CCC1)Cn1c-2c(C2CCCCC2)c2ccc(C(=O)NS(=O)(=O)CC(C)C)cc21 | 1.7 to 500 nM | – | 1.7 to 500 nM | –
COc1ccc2c(c1)C=C(c1c(C(=O)N3CCOCC3)cnn1-c1ccncc1C)Cn1c-2c(C2CCCCC2)c2ccc(C(=O)NS(=O)(=O)C(C)C)cc21 | 1.7 to 500 nM | – | 1.7 to 500 nM | –
COc1ccc2c(c1)C=C(c1c(C(=O)N3C[C@@H](C)N(C)[C@@H](C)C3)cnn1C1CCC1)Cn1c-2c(C2CCCCC2)c2ccc(C(=O)NS(=O)(=O)C(C)C)cc21 | 1.7 to 500 nM | – | 1.7 to 500 nM | –

SMILES | IC50 (HCV NS5B; class symbol) | IC50 (HCV NS5B; exact value) | EC50 (HCV replicon; class symbol) | EC50 (HCV replicon; exact value)
COc1ccc2c(c1)C=C(c1c(C(=O)N3CC[C@H]4C[C@H]43)cnn1C1CCC1)Cn1c-2c(C2CCCCC2)c2ccc(C(=O)NS(=O)(=O)C(C)C)cc21 | 1.7 to 500 nM | – | 1.7 to 500 nM | –
COc1ccc2c(c1)C=C(c1c(C(=O)N3CCOCC3)cnn1C1CCOCC1)Cn1c-2c(C2CCCCC2)c2ccc(C(=O)NS(=O)(=O)CC(C)C)cc21 | 1.7 to 500 nM | 4.2 nM | 1.7 to 500 nM | 8.4 nM
CCOC(=O)c1cnn(C2CC[N+](C)([O-])CC2)c1C1=Cc2cc(OC)ccc2-c2c(C3CCCCC3)c3ccc(C(=O)NS(=O)(=O)C(C)C)cc3n2C1 (stereo not drawn) | 1.7 to 500 nM | 5.1 nM | 1.7 to 500 nM | 220 nM
COc1ccc2c(c1)C=C(c1c(C(=O)N3C[C@@H]4C[C@H]3CO4)c(C)nn1C1CCC1)Cn1c-2c(C2CCCCC2)c2ccc(C(=O)NS(=O)(=O)C(C)C)cc21 | 1.7 to 500 nM | – | 1.7 to 500 nM | –
COc1ccc2c(c1)C=C(c1c(C(=O)N3C4CCC3CN(C)C4)cnn1C1CCOCC1)Cn1c-2c(C2CCCCC2)c2ccc(C(=O)NS(=O)(=O)CC(C)C)cc21 | 1.7 to 500 nM | – | 1.7 to 500 nM | –
COc1ccc2c(c1)C=C(c1c(C(=O)N3C4CCC3CN(C)C4)c(C)nn1C1CCC1)Cn1c-2c(C2CCCCC2)c2ccc(C(=O)NS(=O)(=O)N(C)C)cc21 | 1.7 to 500 nM | – | 1.7 to 500 nM | –
COC[C@@H]1CN(C(=O)c2cnn(C3CCC3)c2C2=Cc3cc(OC)ccc3-c3c(C4CCCCC4)c4ccc(C(=O)NS(=O)(=O)C(C)C)cc4n3C2)CCO1 | 1.7 to 500 nM | – | 1.7 to 500 nM | –
COc1ccc2c(c1)C=C(c1c(C(=O)N3C[C@@H](C)O[C@@H](C)C3)cnn1C1CCC1)Cn1c-2c(C2CCCCC2)c2ccc(C(=O)NS(=O)(=O)N(C)C)cc21 [drawing 259] | 1.7 to 500 nM | – | 1.7 to 500 nM | –
COc1ccc2c(c1)C=C(c1c(C(=O)N3C[C@@H](C)O[C@@H](C)C3)noc1C1CC1)Cn1c-2c(C2CCCCC2)c2ccc(C(=O)NS(=O)(=O)N(C)C)cc21 | 1.7 to 500 nM | – | 1.7 to 500 nM | –
COc1ccc2c(c1)C=C(c1c(C(=O)N3CCOCC3)ncn1C1CCC1)Cn1c-2c(C2CCCCC2)c2ccc(C(=O)NS(=O)(=O)C(C)C)cc21 | 1.7 to 500 nM | 9.7 nM | 1.7 to 500 nM | 70 nM
COc1ccc2c(c1)C=C(c1c(C(=O)N3C[C@@H](C)O[C@@H](C)C3)c(C)nn1C1CCC1)Cn1c-2c(C2CCCCC2)c2ccc(C(=O)NS(=O)(=O)C(C)C)cc21 | 1.7 to 500 nM | 6.4 nM | 1.7 to 500 nM | 10 nM
COc1ccc2c(c1)C=C(c1c(C(=O)N3C4CCCCC3CCC4)cnn1C1CCC1)Cn1c-2c(C2CCCCC2)c2ccc(C(=O)NS(=O)(=O)C(C)C)cc21 | 1.7 to 500 nM | 7 nM | 1.7 to 500 nM | 400 nM
COc1ccc2c(c1)C=C(c1c(C(=O)N3C[C@@H](C)O[C@@H](C)C3)cnn1-c1nc3ccccc3[nH]1)Cn1c-2c(C2CCCCC2)c2ccc(C(=O)NS(=O)(=O)C(C)C)cc21 | 1.7 to 500 nM | 9 nM | 1.7 to 500 nM | 150 nM
COc1ccc2c(c1)C=C(c1c(C(=O)N3C[C@@H](C)O[C@@H](C)C3)cnn1-c1ccncc1)Cn1c-2c(C2CCCCC2)c2ccc(C(=O)NS(=O)(=O)C(C)C)cc21 | 1.7 to 500 nM | – | 1.7 to 500 nM | –
COc1ccc2c(c1)C=C(c1c(C(=O)N3C4CCC3CN(C)C4)cnn1C1CCC1)Cn1c-2c(C2CCCCC2)c2ccc(C(=O)NS(=O)(=O)C(C)C)cc21 | 1.7 to 500 nM | – | 1.7 to 500 nM | –
COc1ccc2c(c1)C=C(c1c(C(=O)N3C[C@@H](C)O[C@@H](C)C3)ncn1C1CC1)Cn1c-2c(C2CCCCC2)c2ccc(C(=O)NS(=O)(=O)C(C)C)cc21 | 1.7 to 500 nM | – | 1.7 to 500 nM | –
COc1ccc2c(c1)C=C(c1ncn(C3CCC3)c1C(=O)N1C[C@@H](C)O[C@@H](C)C1)Cn1c-2c(C2CCCCC2)c2ccc(C(=O)NS(=O)(=O)C(C)C)cc21 | 1.7 to 500 nM | – | 1.7 to 500 nM | –
COc1ccc2c(c1)C=C(c1c(C(=O)N3CC4CCC(C3)N4C)cnn1C1CCC1)Cn1c-2c(C2CCCCC2)c2ccc(C(=O)NS(=O)(=O)C(C)C)cc21 | 1.7 to 500 nM | – | 1.7 to 500 nM | –
CCOC(=O)c1cnn(-c2ccncc2C)c1C1=Cc2cc(OC)ccc2-c2c(C3CCCCC3)c3ccc(C(=O)NS(=O)(=O)C(C)C)cc3n2C1 | 1.7 to 500 nM | – | 1.7 to 500 nM | –
COc1ccc2c(c1)C=C(c1c(C(=O)N3CCOCC3)cnn1C1CC1)Cn1c-2c(C2CCCCC2)c2ccc(C(=O)NS(=O)(=O)C(C)C)cc21 | 1.7 to 500 nM | – | 1.7 to 500 nM | –
CCN1C[C@@H]2C[C@H]1CN2C(=O)c1c(C)nn(C2CCC2)c1C1=Cc2cc(OC)ccc2-c2c(C3CCCCC3)c3ccc(C(=O)NS(=O)(=O)N(C)C)cc3n2C1 | 1.7 to 500 nM | 3.4 nM | 1.7 to 500 nM | 10 nM
